Experiments:
ISC-enriched organoids [1] = test: Primary screen, 384-well 2.5-D organoid differentiation (ENR+CD, 6 days): carbachol-induced lysozyme secretion (LYZ.S); assay type: cell-based, murine; conditions: for Dose.FC.LYZ.S: primary screen, FC vs plate median
Description: (§1) High-throughput screening.

ISC-enriched organoids [2] = test: Primary screen, 384-well 2.5-D organoid differentiation (ENR+CD, 6 days, Target Selective Inhibitor Library, vs whole-plate median): ATP (CellTiter-Glo 3D, CTG); conditions: for Dose.FC.CTG: FC vs plate median; for Z.CTG: standard z score of FC
ISC-enriched organoids [3] = test: Primary screen, 384-well 2.5-D organoid differentiation (ENR+CD, 6 days): basal lysozyme secretion (LYZ.NS); assay type: cell-based, murine; conditions: for Dose.FC.LYZ.NS: FC vs plate median; for Z.LYZ.NS: standard z score of FC
Description: as §1

[4] = dose 0.08 uM (1st of 4 lines per treatment; dose not printed in this part)
[5] = dose 0.40 uM (2nd of 4 lines per treatment; dose not printed in this part)
[6] = dose 2.00 uM (3rd of 4 lines per treatment; dose not printed in this part)
[7] = dose 10.00 uM (4th of 4 lines per treatment; dose not printed in this part)
[8] = primary screen, dose 0.08 uM, ENR+CD 6 days
[9] = primary screen, dose 0.40 uM, ENR+CD 6 days
[10] = primary screen, dose 2.00 uM, ENR+CD 6 days
[11] = primary screen, dose 10.00 uM, ENR+CD 6 days

`CC(C)N(CC[C@H](c1ccccc1)c1cc(CO)ccc1O)C(C)C` [5-hydroxymethyl Tolterodine (PNU 200577, 5-HMT, 5-HM)] was tested, and the “SSMD.LYZ.S_Rep (strictly standardized mean difference)” value (ISC-enriched organoids [1]; [4]) was 0.460, the “Z.LYZ.S (standard z score)” value (ISC-enriched organoids [1]; [4]) was 0.417 and the “SSMD.LYZ.S_Rep (strictly standardized mean difference)” value (ISC-enriched organoids [1]; [5]) was 0.266. The “Z.LYZ.S (standard z score)” value (ISC-enriched organoids [1]; [5]) was 0.231, the “SSMD.LYZ.S_Rep (strictly standardized mean difference)” value (ISC-enriched organoids [1]; [6]) was 0.174 and the “Z.LYZ.S (standard z score)” value (ISC-enriched organoids [1]; [6]) was 0.152. The “SSMD.LYZ.S_Rep (strictly standardized mean difference)” value (ISC-enriched organoids [1]; [7]) was −0.042, the “Z.LYZ.S (standard z score)” value (ISC-enriched organoids [1]; [7]) was −0.044 and the Dose.FC.LYZ.S (ISC-enriched organoids [1]; dose 0.08 uM, ENR+CD 6 days) was 0.065 log 2 fold change. The Dose.FC.LYZ.S (ISC-enriched organoids [1]; dose 0.40 uM, ENR+CD 6 days) was 0.036 log 2 fold change, the Dose.FC.LYZ.S (ISC-enriched organoids [1]; dose 2.00 uM, ENR+CD 6 days) was 0.023 log 2 fold change and the Dose.FC.LYZ.S (ISC-enriched organoids [1]; dose 10.00 uM, ENR+CD 6 days) was −0.007 log 2 fold change. For the same molecule, the “SSMD.CTG_Rep (strictly standardized mean difference)” value (ISC-enriched organoids [2]; [4]) was −0.118, the “SSMD.CTG_Rep (strictly standardized mean difference)” value (ISC-enriched organoids [2]; [5]) was 0.291 and the “SSMD.CTG_Rep (strictly standardized mean difference)” value (ISC-enriched organoids [2]; [6]) was 0.114. For the same molecule, the “SSMD.CTG_Rep (strictly standardized mean difference)” value (ISC-enriched organoids [2]; [7]) was 0.061, the Dose.FC.CTG (ISC-enriched organoids [2]; [8]) was −0.062 log 2 fold change and the Z.CTG (ISC-enriched organoids [2]; primary screen, dose 0.08 uM) was −0.149. The Dose.FC.CTG (ISC-enriched organoids [2]; [9]) was 0.087 log 2 fold change, the Z.CTG (ISC-enriched organoids [2]; primary screen, dose 0.40 uM) was 0.207 and the Dose.FC.CTG (ISC-enriched organoids [2]; [10]) was 0.034 log 2 fold change. For the same molecule, the Z.CTG (ISC-enriched organoids [2]; primary screen, dose 2.00 uM) was 0.082, the Dose.FC.CTG (ISC-enriched organoids [2]; [11]) was 0.017 log 2 fold change and the Z.CTG (ISC-enriched organoids [2]; primary screen, dose 10.00 uM) was 0.040. For the same molecule, the “SSMD.LYZ.NS_Rep (strictly standardized mean difference)” value (ISC-enriched organoids [3]; [4]) was 0.915, the “SSMD.LYZ.NS_Rep (strictly standardized mean difference)” value (ISC-enriched organoids [3]; [5]) was 0.760 and the “SSMD.LYZ.NS_Rep (strictly standardized mean difference)” value (ISC-enriched organoids [3]; [6]) was 0.947. The “SSMD.LYZ.NS_Rep (strictly standardized mean difference)” value (ISC-enriched organoids [3]; [7]) was 0.223, the Dose.FC.LYZ.NS (ISC-enriched organoids [3]; [8]) was 0.184 log 2 fold change and the Z.LYZ.NS (ISC-enriched organoids [3]; primary screen, dose 0.08 uM) was 1.599. The Dose.FC.LYZ.NS (ISC-enriched organoids [3]; [9]) was 0.076 log 2 fold change, the Z.LYZ.NS (ISC-enriched organoids [3]; primary screen, dose 0.40 uM) was 0.665 and the Dose.FC.LYZ.NS (ISC-enriched organoids [3]; [10]) was 0.154 log 2 fold change. The Z.LYZ.NS (ISC-enriched organoids [3]; primary screen, dose 2.00 uM) was 1.344, the Dose.FC.LYZ.NS (ISC-enriched organoids [3]; [11]) was 0.034 log 2 fold change and the Z.LYZ.NS (ISC-enriched organoids [3]; primary screen, dose 10.00 uM) was 0.293.
`CN(c1ncccc1CNc1nc(Nc2ccc3c(c2)CC(=O)N3)ncc1C(F)(F)F)S(C)(=O)=O` [PF-562271] gave a Dose.FC.LYZ.S (ISC-enriched organoids [1]; Dose 0.08 uM) of −0.088 log 2 fold change, a Dose.FC.LYZ.S (ISC-enriched organoids [1]; Dose 0.40 uM) of −0.214 log 2 fold change and a Dose.FC.LYZ.S (ISC-enriched organoids [1]; Dose 2.00 uM) of −0.332 log 2 fold change. It also gave a Dose.FC.LYZ.S (ISC-enriched organoids [1]; Dose 10.00 uM) of −0.414 log 2 fold change, a Dose.FC.CTG (ISC-enriched organoids [2]; Dose 0.08 uM, primary screen) of −0.114 log 2 fold change and a Z.CTG (ISC-enriched organoids [2]; Dose 0.08 uM) of −0.273. It also gave a Dose.FC.CTG (ISC-enriched organoids [2]; Dose 0.40 uM, primary screen) of −0.217 log 2 fold change, a Z.CTG (ISC-enriched organoids [2]; Dose 0.40 uM) of −0.518 and a Dose.FC.CTG (ISC-enriched organoids [2]; Dose 2.00 uM, primary screen) of −0.549 log 2 fold change. The Z.CTG (ISC-enriched organoids [2]; Dose 2.00 uM) was −1.311, the Dose.FC.CTG (ISC-enriched organoids [2]; Dose 10.00 uM, primary screen) was −0.949 log 2 fold change and the Z.CTG (ISC-enriched organoids [2]; Dose 10.00 uM) was −2.266. For the same molecule, the Dose.FC.LYZ.NS (ISC-enriched organoids [3]; Dose 0.08 uM, primary screen) was −0.068 log 2 fold change, the Z.LYZ.NS (ISC-enriched organoids [3]; Dose 0.08 uM) was −0.589 and the Dose.FC.LYZ.NS (ISC-enriched organoids [3]; Dose 0.40 uM, primary screen) was −0.152 log 2 fold change. The Z.LYZ.NS (ISC-enriched organoids [3]; Dose 0.40 uM) was −1.325, the Dose.FC.LYZ.NS (ISC-enriched organoids [3]; Dose 2.00 uM, primary screen) was −0.234 log 2 fold change and the Z.LYZ.NS (ISC-enriched organoids [3]; Dose 2.00 uM) was −2.034. The Dose.FC.LYZ.NS (ISC-enriched organoids [3]; Dose 10.00 uM, primary screen) was −0.251 log 2 fold change and the Z.LYZ.NS (ISC-enriched organoids [3]; Dose 10.00 uM) was −2.184.
In the case of `CC(=O)c1c(C)c2cnc(Nc3ccc(N4CCNCC4)cn3)nc2n(C2CCCC2)c1=O.Cl` [Palbociclib (PD-0332991) HCl], the Dose.FC.LYZ.S (ISC-enriched organoids [1]; Dose 0.08 uM) is reported as 0.004 log 2 fold change, the Dose.FC.LYZ.S (ISC-enriched organoids [1]; Dose 0.40 uM) is reported as −0.042 log 2 fold change and the Dose.FC.LYZ.S (ISC-enriched organoids [1]; Dose 2.00 uM) is reported as −0.122 log 2 fold change. It also gave a Dose.FC.LYZ.S (ISC-enriched organoids [1]; Dose 10.00 uM) of −0.203 log 2 fold change, a Dose.FC.CTG (ISC-enriched organoids [2]; Dose 0.08 uM, primary screen) of 0.169 log 2 fold change and a Z.CTG (ISC-enriched organoids [2]; Dose 0.08 uM) of 0.404. For the same molecule, the Dose.FC.CTG (ISC-enriched organoids [2]; Dose 0.40 uM, primary screen) was −0.350 log 2 fold change, the Z.CTG (ISC-enriched organoids [2]; Dose 0.40 uM) was −0.836 and the Dose.FC.CTG (ISC-enriched organoids [2]; Dose 2.00 uM, primary screen) was −0.083 log 2 fold change. For the same molecule, the Z.CTG (ISC-enriched organoids [2]; Dose 2.00 uM) was −0.199, the Dose.FC.CTG (ISC-enriched organoids [2]; Dose 10.00 uM, primary screen) was −0.677 log 2 fold change and the Z.CTG (ISC-enriched organoids [2]; Dose 10.00 uM) was −1.617. For the same molecule, the Dose.FC.LYZ.NS (ISC-enriched organoids [3]; Dose 0.08 uM, primary screen) was −0.006 log 2 fold change, the Z.LYZ.NS (ISC-enriched organoids [3]; Dose 0.08 uM) was −0.055 and the Dose.FC.LYZ.NS (ISC-enriched organoids [3]; Dose 0.40 uM, primary screen) was −0.029 log 2 fold change. For the same molecule, the Z.LYZ.NS (ISC-enriched organoids [3]; Dose 0.40 uM) was −0.248, the Dose.FC.LYZ.NS (ISC-enriched organoids [3]; Dose 2.00 uM, primary screen) was −0.051 log 2 fold change and the Z.LYZ.NS (ISC-enriched organoids [3]; Dose 2.00 uM) was −0.440. It also gave a Dose.FC.LYZ.NS (ISC-enriched organoids [3]; Dose 10.00 uM, primary screen) of −0.132 log 2 fold change and a Z.LYZ.NS (ISC-enriched organoids [3]; Dose 10.00 uM) of −1.150.
